Source: the NIST ThermoML archive (doi:10.1016/j.tca.2015.01.022)

Test: molar heat capacity at constant pressure
Details: 101.33 kPa, Glass, Small (less than 1 g) adiabatic calorimetry

CCOS(=O)(=O)[O-].CCn1cc[n+](C)c1 [1-ethyl-3-methylimidazolium ethyl sulfate]
Details	molar heat capacity at constant pressure [J/K/mol]
110 K	163.7
111.77 K	165.5
113.63 K	167.3
115.49 K	169.2
117.36 K	171
119.23 K	172.8
120 K	173.5
121.1 K	174.6
122.98 K	176.4
124.42 K	177.8
124.85 K	178.2
126.41 K	179.7
126.73 K	180
128.28 K	181.4
128.61 K	181.8
130 K	183.1
130.16 K	183.3
130.5 K	183.6
132.03 K	185.1
132.38 K	185.4
133.91 K	186.9
134.27 K	187.2
135.79 K	188.7
136.16 K	189.1
137.67 K	190.6
138.05 K	190.9
139.55 K	192.4
139.95 K	192.7
140 K	192.8
141.43 K	194.2
141.84 K	194.5
143.31 K	196
143.74 K	196.4
145.19 K	197.9
145.64 K	198.2
147.07 K	199.7
147.53 K	200.1
148.95 K	201.6
149.43 K	202
150 K	202.6
150.83 K	203.5
151.33 K	203.9
152.71 K	205.3
153.23 K	205.8
154.59 K	207.2
155.13 K	207.8
155.16 K	207.7
156.47 K	209.1
157.04 K	209.7
157.27 K	209.9
158.34 K	211.1
158.94 K	211.7
159.27 K	212
160 K	212.7
160.22 K	213.1
160.84 K	213.8
161.27 K	214.3
162.09 K	215
162.75 K	215.8
163.26 K	216.4
163.96 K	217.2
164.67 K	217.8
165.26 K	218.6
165.83 K	219.3
166.58 K	220.1
167.25 K	221
167.7 K	221.5
168.51 K	222.3
169.24 K	223.4
169.57 K	223.8
170 K	224.3
170.43 K	224.8
171.36 K	226.2
171.44 K	226.5
172.36 K	227.7
173.31 K	229.1
173.44 K	229.3
174.29 K	230.5
175.18 K	232
175.43 K	232.4
176.22 K	233.7
177.04 K	235.4
177.41 K	236.3
178.16 K	237.7
178.9 K	239.4
179.39 K	240.8
180 K	242.6
180.1 K	242.9
